Source: patent publication US9840515B2, “Protein kinase D inhibitors” (University of Pittsburgh—Of the Commonwealth System of …, priority 2010, dated 2017)
Read-outs that look alike come from different tables or passages of the source.

Assays:
[1] = molecular target: T1, PKD1 (Homo sapiens, UniProt Q15139); test: IMAP-FP PKD1 assay; assay type: biochemical
T1 sequence (Q15139 1-912): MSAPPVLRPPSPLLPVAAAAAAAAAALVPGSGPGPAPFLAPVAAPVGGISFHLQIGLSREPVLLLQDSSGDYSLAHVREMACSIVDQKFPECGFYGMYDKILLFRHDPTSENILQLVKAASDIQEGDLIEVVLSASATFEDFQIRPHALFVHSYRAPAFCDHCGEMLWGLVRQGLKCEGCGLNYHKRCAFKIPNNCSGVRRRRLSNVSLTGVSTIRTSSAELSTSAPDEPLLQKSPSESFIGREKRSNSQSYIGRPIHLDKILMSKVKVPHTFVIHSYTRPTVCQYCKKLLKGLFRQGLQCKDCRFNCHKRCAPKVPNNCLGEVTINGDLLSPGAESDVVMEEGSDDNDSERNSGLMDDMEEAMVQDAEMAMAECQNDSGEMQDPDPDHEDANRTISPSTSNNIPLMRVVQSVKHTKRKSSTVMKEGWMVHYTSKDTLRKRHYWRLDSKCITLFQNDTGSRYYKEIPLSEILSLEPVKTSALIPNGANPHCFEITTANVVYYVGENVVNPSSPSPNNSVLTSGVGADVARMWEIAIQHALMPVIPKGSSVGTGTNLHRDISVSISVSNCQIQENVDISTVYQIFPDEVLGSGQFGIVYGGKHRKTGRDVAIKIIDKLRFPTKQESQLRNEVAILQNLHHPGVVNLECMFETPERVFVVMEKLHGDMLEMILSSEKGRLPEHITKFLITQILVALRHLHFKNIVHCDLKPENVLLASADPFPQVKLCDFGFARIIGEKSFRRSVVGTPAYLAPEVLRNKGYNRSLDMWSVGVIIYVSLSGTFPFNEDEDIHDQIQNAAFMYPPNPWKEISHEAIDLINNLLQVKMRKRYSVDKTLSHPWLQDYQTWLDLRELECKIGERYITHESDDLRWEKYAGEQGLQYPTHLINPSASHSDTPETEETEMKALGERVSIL
Source text: See Sharlow, E. R., et. al., J Biol Chem, 283: 33516-33526, (2008). The assay established the concentration of inhibitor that is required to reduce PKD1 activity by 50% (IC50), as shown in Table 2 above.

[2] = molecular target: T2, purified recombinant human PKD1 (Homo sapiens, UniProt Q15139); test: radiometric PKD kinase activity assay; assay type: biochemical
T2 sequence (Q15139 1-912): T1 sequence (Q15139 1-912)
Method: The radiometric PKD kinase assay was carried out by co-incubating 0.5 μCi γ-32P-ATP (PerkinElmer, Boston, Mass.), 20 μM ATP, 50 ng purified recombinant human PKD (PKD1, PKD2, PKD3) proteins, and 2.5 μg Syntide-2 (Sigma) in 50 μl kinase buffer that contains 50 mM Tris-HCl, pH 7.5, 4 mM MgCl2, 10 mM β-mercaptoethanol. The reaction was carried out under sub-saturation conditions, such that the initial rate was within linear kinetic range. The reaction mixture was incubated at 30° C. for 10 min, followed by spotting 25 μl of the mix onto a Whatman P81 filter paper (Whatman Inc, Clifton, N.J.). The filter papers were then washed three times in 0.5% phosphoric acid, air-dried, and counted using a Beckman LS6500 multi-purpose scintillation counter (Beckman, Fullerton, Calif.).

[3] = read-out: IC50 radiometric PKD1

IC50 [2, 3] [nM] | melting point | Compound | further results
> 30000 | 295 °C (dec.) | COc1nc(O)c2sc3c(c2n1)SCCNC3=O [kmg-NB5-15A, 4-Hydroxy-2-methoxy-7H,8H,9H-1,4-thiazepino[7′,6′-5,4]thiopheno[3,2-d]pyrimidin-6-one] | –
48 | 235 to 238 °C (dec.) | O=C1NCCSc2c1sc1ccc(O)c(Br)c21 [kb-NB184-52, 3,4-Dihydro-9-hydroxy-10-bromo-[1]benzothieno[2,3-f]-1,4-thiazepin-5(2H)-one] | –
16400 | 182 to 184 °C (dec.) | Oc1ccc2sc3c(c2c1)SCCNC3 [kb-NB165-83, 2,3,4,5-Tetrahydro-9-hydroxy-[1]benzothieno[2,3-f]-1,4-thiazepine] | –
1500 | 229 to 230 °C (dec.) | O=C(CCl)Nc1ccc2sc3c(c2c1)SCCNC3=O [mcf292-09, 3,4-Dihydro-9-(2-chloroacetamido)-[1]benzothieno[2,3-f]-1,4-thiazepin-5(2H)-one] | –
1080 | 284 to 287 °C | COc1ccc2c(c1)c1c([s+]2[O-])C(=O)NCCS1 (centres unmarked) [kb-NB184-25, 3,4-Dihydro-9-methoxy-6-oxide-[1]benzothieno[2,3-f]-1,4-thiazepin-5(2H)-one] | –
450 ± 50 | 265 to 268 °C | CN1CCSc2c(sc3ccc(O)cc23)C1=O [kb-NB165-17, 2,3-Dihydro-4-methyl-9-hydroxy-[1]benzothieno[2,3-f]-1,4-thiazepin-5-one] | –
39600 | 144 to 145 °C | c1ccc(COc2ccc3sc4c(c3c2)SCCNC4)cc1 [kb-NB165-81, 2,3,4,5-Tetrahydro-9-benzyloxy-[1]benzothieno[2,3-f]-1,4-thiazepine] | –
21700 | 198 to 199 °C | O=C1NCCCSc2c1sc1ccc(OCc3ccccc3)cc21 [kb-NB165-89, 2,3,4,5-Tetrahydro-10-benzyloxybenzo[b]thieno[2,3-f]-1,5-thiazocin-6-one] | –
– | 116 to 120 °C | COC(=O)c1sc2ccc(OC)cc2c1NCCCO [kb-NB184-80, Methyl 3-(3-hydroxypropylamino)-5-methoxybenzo[b]thiophene-2-carboxylate] | IC50 radiometric PKD1 [2]: not inhibitory
4570 ± 780 | 160 to 161 °C | COc1ccc2sc3c(c2c1)SCCN(C)C3=O [kb-NB165-16, 2,3-Dihydro-4-Methyl-9-methoxy-[1]benzothieno[2,3-f]-1,4-thiazepin-5(2H)-one] | –
3170 | 198.6 to 199 °C | Nc1ccc2sc3c(c2c1)SCCNC3=O [mcf292-03, 3,4-Dihydro-9-amino-[1]benzothieno[2,3-f]-1,4-thiazepin-5(2H)-one] | –
– | 288 °C (dec.) | COc1nc(OC)c2sc3c(c2n1)SCCNC3=O [kmg-NB5-13C, 2,4-Dimethoxy-7H,8H,9H-1,4-thiazepino[7′,6′-5,4]thiopheno[3,2-d]pyrimidin-6-one] | –
– | 117 to 119 °C | CC(C)(C)[Si](C)(C)Oc1ccc2oc(=O)c3c(c2c1)CCCN3 | –
757 | 250 to 254 °C | NCCN1CCSc2c(sc3ccc(O)cc23)C1=O [kb-NB165-75, 2,3-Dihydro-4-(2-aminoethyl)-9-hydroxy-[1]benzothieno[2,3-f]-1,4-thiazepin-5-one] | –
– | 90 to 91 °C | C=CCOc1ccc2oc(=O)c3c(c2c1)CCCN3 [kb-NB77-83, 9-Allyloxy-1,2,3,4-tetrahydrochromeno[3,4-b]pyridin-5-one] | –

More lines, now with the values behind:

Compound | IC50 [2, 3] [nM] | melting point | further results
C=CCc1c(O)ccc2oc3c(c12)CCCNC3=O [kb-NB96-02, 6-Allyl-7-hydroxy-2,3,4,5-tetrahydro-[1]benzoxolo[2,3-c]azepin-1-one] | 1580 | 255 to 257 °C | IC50 [1]: 2400 ± 300 nM
O=C1NCCSc2c1sc1ccc(N=C=S)cc21 [mcf292-05, 3,4-Dihydro-9-isothiocyanato-[1]benzothieno[2,3-f]-1,4-thiazepin-5(2H)-one] | 2770 | 253 to 253.3 °C | –
Nc1ccc2[nH]c3c(c2c1)CCCNC3=O [kb-NB142-01] | 9680 ± 1010 | 202 to 207 °C | IC50 [1]: 47100 ± 2500 nM
O=C1NCCCc2c1oc1ccc(O)c(F)c21 [kb-NB96-21, 6-Fluoro-7-hydroxy-2,3,4,5-tetrahydro-[1]benzoxolo[2,3-c]azepin-1-one] | 240 | > 300 °C | IC50 [1]: 1300 ± 50 nM
Nc1ccc2[nH]c3c(c2c1)CCNC3=O [kb-NB142-08, 6-Amino-2,3,4,9-tetrahydro-1H-pyrido[3,4-b]indol-1-one] | 15700 ± 190 | 280 to 282 °C | IC50 [1]: 74400 ± 2200 nM
CC(=O)Nc1ccc2[nH]c3c(c2c1)CCCNC3=O [kb-NB123-94] | – | > 300 °C | IC50 IMAP-FP PKD1 [1]: not inhibitory
O=C1NCCC(=NOCc2ccccc2)c2c1oc1ccc(O)cc21 [kb-NB142-10, 7-Hydroxy-5-[(phenylmethoxy)azamethylene]-2H,3H,4H-azepino[5,6-d]benzo[b]furan-1-one] | – | 103 to 110 °C | IC50 IMAP-FP PKD1 [1]: not inhibitory
O=C1NCCCc2c1oc1cc(Cl)c(O)cc21 [kb-NB96-47-5, 8-Chloro-7-hydroxy-2,3,4,5-tetrahydro-[1]benzoxolo[2,3-c]azepin-1-one] | – | 327 to 332 °C | IC50 [1]: > 100000 nM
C=CCOc1ccc2oc3c(c2c1)CCCNC3=O [kb-NB77-84, 7-Allyloxy-2,3,4,5-tetrahydro-[1]benzoxolo[2,3-c]azepin-1-one] | – | 198 to 200 °C | IC50 ([2]; radiometric kinase activity assay, in vitro, read-out: IC50 PKD1): 123 nM
O=C1NCCc2c1[nH]c1ccc(OCc3ccccc3)cc21 [kb-NB123-52, 2,3,4,9-Tetrahydro-6-benzyloxy-1H-pyrido[3,4-b]indol-1-one] | – | 208 to 210 °C | IC50 IMAP-FP PKD1 [1]: not inhibitory
C=CCOc1ccc2oc3c(c2c1Cl)CCCNC3=O [kb-NB96-50, 7-Allyloxy-6-chloro-2,3,4,5-tetrahydro-[1]benzoxolo[2,3-c]azepin-1-one] | – | 192 to 194 °C | IC50 IMAP-FP PKD1 [1]: not inhibitory
O=C1NCCCc2c1[nH]c1ccc(OCc3ccccc3)cc21 [kb-NB123-53, 3,4,5,10-Tetrahydro-7-benzyloxy-azepino[3,4-b]indol-1(2H)-one] | – | – | IC50 IMAP-FP PKD1 [1]: not inhibitory
Oc1ccc2oc3c(c2c1)CCCN1CCN=C31 [kb-NB165-15, 5H,6H,7H-Benzo[b]2-imidazolino[1′,2′-7,1]azepino[5,6-d]furan-9-ol] | – | 230 to 232 °C (dec.) | IC50 PKD1 ([2]; radiometric kinase activity assay, in vitro): No inhibition
O=C1NCCCc2c1oc1cc(Cl)c(O)c(Cl)c21 [kb-NB96-43, 6,8-Dichloro-7-hydroxy-2,3,4,5-tetrahydro-[1]benzoxolo[2,3-c]azepin-1-one] | – | 298 to 301 °C | IC50 IMAP-FP PKD1 [1]: not inhibitory
CC(=O)Nc1ccc2[nH]c3c(c2c1)CCNC3=O [kb-NB123-93, N-(2,3,4,9-Tetrahydro-1-oxo-1H-pyrido[3,4-b]indol-6-yl)-acetamide] | – | > 300 °C | IC50 IMAP-FP PKD1 [1]: not inhibitory
Cc1ccc(S(=O)(=O)NN=C2CCNC(=O)c3oc4ccc(O)cc4c32)cc1 [kb-NB142-11, 7-Hydroxy-5-({[(4-methylphenyl)sulfonyl]amino}azamethylene)-2H,3H,4H-azepino[5,6-d]benzo[b]furan-1-one] | – | 220 to 224 °C | IC50 [1]: 38200 ± 1170 nM
